How the values were obtained:
Assay type in all cases: physicochemical
[1] = Suspension competitive test between Crystalline Form III and Crystalline Form XVIII (EtOAc, MTBE, n-butyl alcohol; solid tested by XRPD); settings: for Crystalline Form: solid by XRPD after suspension stirring 7 days; for interconversion rate of crystalline form III and crystalline form XVIII: suspension stirring 7 days
[2] = Suspension competitive agitation test between anhydrous crystalline forms I, III, XV, XVII and XVIII (IPA, MTBE; solid tested by XRPD); settings: solid by XRPD after suspension stirring 3 days
[3] = Stability test (1): physical and chemical stability by XRPD and HPLC at 80° C., 40° C./75% RH and 25° C./60% RH; settings: for chemical stability: degradation (HPLC purity) / physical stability: crystalline form (XRPD): 80° C. (sealed) 24 hours, 40° C./75% RH and 25° C./60% RH (open) 1 week; for purity (area %): HPLC
Description: (sealed) for 24 hours, at 40° C./75% RH and 25° C./60% RH (open) for 1 week, respectively. The physical and chemical stability of the samples were tested by XRPD and HPLC.

[4] = Evaluation of hygroscopicity by Dynamic Moisture Sorption Analyzer (DVS), with XRPD before and after DVS; settings: for hygroscopicity (in words) / moisture adsorption: DVS, 80% RH/25° C.; for moisture adsorption: humidity cycle 0% RH-95% RH-0% RH; for crystalline form after the DVS test (XRPD): XRPD of the sample after the DVS test

stability of crystalline form III and crystalline form XVIII relative to each other ([1]; room temperature) | interconversion rate of crystalline form III and crystalline form XVIII ([1]; room temperature) | chemical stability: degradation (HPLC purity) [3] | physical stability: crystalline form (XRPD) [3] | purity (area %) ([3]; 25° C./60% RH 1 week (open)) | purity (area %) ([3]; 40° C./75% RH 1 week (open)) | purity (area %) ([3]; 80° C. 24 hours (sealed)) | purity (area %) ([3]; starting point) | hygroscopicity (in words) [4] | moisture adsorption [4] [%] | crystalline form after the DVS test (XRPD) [4] | Compound | other results
– | – | – | – | – | – | – | – | – | – | – | O=C(NS(=O)(=O)c1ccc(NC[C@H]2COCCO2)c([N+](=O)[O-])c1)c1ccc(N2CCN(CC3=C(c4ccc(Cl)cc4)CC4(CCC4)CC3)CC2)cc1Oc1cnc2[nH]ccc2c1 [listing 1 of 2 here] | Crystalline Form ([1]; EtOAc, 50° C.): Crystalline Form III; Crystalline Form ([1]; EtOAc, 70° C.): Crystalline Form III; Crystalline Form ([1]; EtOAc, room temperature): Crystalline Form V; Crystalline Form ([1]; MTBE, 50° C.): Crystalline Form III; Crystalline Form ([1]; MTBE, 70° C.): Crystalline Form III; Crystalline Form ([1]; n-Butyl alcohol, 50° C.): Crystalline Form III; Crystalline Form ([1]; n-Butyl alcohol, 70° C.): Crystalline Form III
– | – | – | – | – | – | – | – | – | – | – | O=C(NS(=O)(=O)c1ccc(NC[C@H]2COCCO2)c([N+](=O)[O-])c1)c1ccc(N2CCN(CC3=C(c4ccc(Cl)cc4)CC4(CCC4)CC3)CC2)cc1Oc1cnc2[nH]ccc2c1 [listing 2 of 2 here] | Crystalline Form ([2]; IPA, 50° C.): Crystalline Form III; Crystalline Form ([2]; IPA, 70° C.): Crystalline Form III; Crystalline Form ([2]; IPA, room temperature): Crystalline Form III; Crystalline Form ([2]; MTBE, 50° C.): Crystalline Form III; Crystalline Form ([2]; MTBE, 70° C.): Crystalline Form III; Crystalline Form ([2]; MTBE, room temperature): Crystalline Form III
similar | relatively slow | did not degrade | did not change | 98.66 | 98.67 | 98.64 | 98.65 | slight hygroscopicity | 0.9 | did not change | O=C(NS(=O)(=O)c1ccc(NCC2COCCO2)c([N+](=O)[O-])c1)c1ccc(N2CCN(CC3=C(c4ccc(Cl)cc4)CC4(CCC4)CC3)CC2)cc1Oc1cnc2[nH]ccc2c1 (single isomer, unassigned) [crystalline form III] | –
similar | relatively slow | did not degrade | did not change | 99.60 | 99.61 | 99.61 | 99.48 | almost no moisture absorption | 0.04 | did not change | O=C(NS(=O)(=O)c1ccc(NCC2COCCO2)c([N+](=O)[O-])c1)c1ccc(N2CCN(CC3=C(c4ccc(Cl)cc4)CC4(CCC4)CC3)CC2)cc1Oc1cnc2[nH]ccc2c1 (single isomer, unassigned) [crystalline form XVIII] | –
